In PubChem BioAssay AID330 (DTP/NCI, 2004) one finds T/C data, which are given here for 18 compounds.

“And” between values parts separate entries of the source, which are not always exact repeats. Equal values may be shown once. Toxic doses and inconclusive results are not listed.

This test deals with P388 leukemia ip, CD2F1 mice, survival T/C. Description: NCI In Vivo Anticancer Drug Screen. Data for tumor model P388 Leukemia (intraperitoneal) in CD2F1 (CDF1) mice. Conditions: endpoint: median survival time, higher = longer survival. The essentials: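 Mice carrying the transplanted tumor received test compound or vehicle. Survival was recorded in each group, and the value is the treated-group measurement divided by that of the vehicle-treated control group.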

[1] abbreviates: dose: 12.5 mg/kg/injection, schedule: Q01DX009 (ip), vehicle: Klucel (hydroxypropylcellulose) (HPC).
Where [2] appears, read: dose: 25.0 mg/kg/injection, schedule: Q01DX009 (ip), vehicle: Klucel (hydroxypropylcellulose) (HPC).
The mark [3] stands for this setting: dose: 25.0 mg/kg/injection, schedule: Q01DX009 (ip), vehicle: saline with Tween-80.
Setting [4] is: dose: 50.0 mg/kg/injection, schedule: Q01DX009 (ip), vehicle: saline with Tween-80.
[5] abbreviates: dose: 200.0 mg/kg/injection, schedule: Q01DX009 (ip), vehicle: saline with Tween-80.
Where [6] appears, read: dose: 100.0 mg/kg/injection, schedule: Q01DX009 (ip), vehicle: saline with Tween-80.
[7] abbreviates: dose: 400.0 mg/kg/injection, schedule: Q01DX009 (ip), vehicle: saline with Tween-80.
Where [8] appears, read: dose: 50.0 mg/kg/injection, schedule: Q01DX005 (ip), vehicle: saline with Tween-80.
Setting [9] is: dose: 100.0 mg/kg/injection, schedule: Q01DX005 (ip), vehicle: saline with Tween-80.
The mark [10] stands for this setting: dose: 200.0 mg/kg/injection, schedule: Q01DX005 (ip), vehicle: saline with Tween-80.

In the case of `CCOC(=O)C12CCOC1(OC)NC(=O)C=C2C(=O)OC` (stereo not given), the T/C is, setting by setting: (dose: 100.0 mg/kg/injection, schedule: Q04DX003 (ip), vehicle: Klucel (hydroxypropylcellulose) (HPC)) 110 % of control; (dose: 200.0 mg/kg/injection, schedule: Q04DX003 (ip), vehicle: Klucel (hydroxypropylcellulose) (HPC)) 110 % of control; (dose: 400.0 mg/kg/injection, schedule: Q04DX003 (ip), vehicle: Klucel (hydroxypropylcellulose) (HPC)) 118 % of control.
On to `CC(O)CO` (stereo not given), for which the T/C was 112 % of control (dose: 1.56 % in 0.5 ml injection vol, schedule: Q01DX009 (ip), vehicle: water); 119 % of control (dose: 3.12 % in 0.5 ml injection vol, schedule: Q01DX009 (ip), vehicle: water); 110 % of control and 119 % of control (dose: 6.25 % in 0.5 ml injection vol, schedule: Q01DX009 (ip), vehicle: water); 111 % of control and 113 % of control (dose: 12.5 % in 0.5 ml injection vol, schedule: Q01DX009 (ip), vehicle: water); 104 % of control and 110 % of control (dose: 25.0 % in 0.5 ml injection vol, schedule: Q01DX009 (ip), vehicle: water); 88 % of control (dose: 50.0 % in 0.5 ml injection vol, schedule: Q01DX009 (ip), vehicle: water).
On to `Cn1c(N)c(C(=O)/C=C/c2ccccc2)c(=O)n(C)c1=O`, for which the T/C under setting [1] is 99 % of control and 124 % of control; the T/C under setting [2] is 120 % of control and 93 % of control; the T/C (dose: 100.0 mg/kg/injection, schedule: Q01DX009 (ip), vehicle: Klucel (hydroxypropylcellulose) (HPC)) is 93 % of control and 113 % of control and 92 % of control; the T/C (dose: 200.0 mg/kg/injection, schedule: Q01DX009 (ip), vehicle: Klucel (hydroxypropylcellulose) (HPC)) is 116 % of control.
For `CCCCNC(=O)OCc1c(COC(=O)NCCCC)c(-c2ccc(Cl)c(Cl)c2)n2c1CCC2`, the T/C under setting [3] is 153 % of control and 159 % of control; the T/C under setting [4] was 150 % of control and 171 % of control; the T/C under setting [5] was 163 % of control.
With `C/C(=N\NC(=S)Nc1ccc(S(=O)(=O)O)cc1)c1ccccn1`, the T/C was 107 % of control (dose: 50.0 mg/kg/injection, schedule: Q01DX005 (ip), vehicle: Klucel (hydroxypropylcellulose) (HPC)); 101 % of control (dose: 50.0 mg/kg/injection, schedule: Q01DX005 (ip), vehicle: suspension in saline); 108 % of control (dose: 100.0 mg/kg/injection, schedule: Q01DX005 (ip), vehicle: Klucel (hydroxypropylcellulose) (HPC)); 105 % of control (dose: 100.0 mg/kg/injection, schedule: Q01DX005 (ip), vehicle: suspension in saline); 106 % of control (dose: 200.0 mg/kg/injection, schedule: Q01DX005 (ip), vehicle: Klucel (hydroxypropylcellulose) (HPC)); 121 % of control (dose: 200.0 mg/kg/injection, schedule: Q01DX005 (ip), vehicle: suspension in saline). Moreover, the T/C (dose: 400.0 mg/kg/injection, schedule: Q01DX005 (ip), vehicle: Klucel (hydroxypropylcellulose) (HPC)) is 115 % of control.
In the case of `Cc1cc(O)c(C2(C)CCC3CC32C)cc1Br` (stereo not given), the T/C reads like this: under setting [3], 97 % of control; under setting [4], 105 % of control; under setting [6], 107 % of control; under setting [5], 114 % of control.
In the case of `CCCCN(CCCC)CC(O)c1c(Br)c2ccccc2c2ccccc12` (stereo not given), the T/C by setting is: (dose: 12.5 mg/kg/injection, schedule: Q01DX009 (ip), vehicle: saline with Tween-80) 107 % of control; under setting [3], 109 % of control; under setting [4], 124 % of control.
Take `CSc1nc2c(SC)ncnc2s1`: the T/C (dose: 100.0 mg/kg/injection, schedule: Q01DX001 (ip), vehicle: distilled water + alcohol) is 103 % of control; the T/C (dose: 200.0 mg/kg/injection, schedule: Q01DX001 (ip), vehicle: distilled water + alcohol) was 94 % of control; the T/C (dose: 400.0 mg/kg/injection, schedule: Q01DX001 (ip), vehicle: distilled water + alcohol) was 98 % of control.
With `Cc1cc2c(C(C)C)c(O)c(O)cc2c(O)c1-c1c(C)cc2c(C(C)C)c(O)c(O)cc2c1O`, the T/C was 95 % of control (dose: 12.5 mg/kg/injection, schedule: Q04DX003 (ip), vehicle: saline with Tween-80); 100 % of control (dose: 25.0 mg/kg/injection, schedule: Q04DX003 (ip), vehicle: saline with Tween-80); 104 % of control (dose: 50.0 mg/kg/injection, schedule: Q04DX003 (ip), vehicle: saline with Tween-80).
Turning to `Cc1c[n+]2ccccc2n1C`, the T/C by setting is: (dose: 1.56 mg/kg/injection, schedule: Q01DX009 (ip), vehicle: saline) 98 % of control; (dose: 3.13 mg/kg/injection, schedule: Q01DX009 (ip), vehicle: saline) 95 % of control; (dose: 6.25 mg/kg/injection, schedule: Q01DX009 (ip), vehicle: saline) 89 % of control.
With `CO/C1=C\C(C)=C\C(C)C(O)C(C)C/C(C)=C/C=C/C(OC)C(C(C)C(O)C(C)C(=O)/C=C/C(C)C(C)O)OC1=O` (stereo not given), the T/C is, setting by setting: (dose: 6.25 mg/kg/injection, schedule: Q01DX005 (ip), vehicle: other) 108 % of control; (dose: 12.5 mg/kg/injection, schedule: Q01DX005 (ip), vehicle: other) 98 % of control; (dose: 25.0 mg/kg/injection, schedule: Q01DX005 (ip), vehicle: other) 103 % of control; (dose: 25.0 mg/kg/injection, schedule: Q01DX005 (ip), vehicle: saline + Tween-80 + alcohol) 103 % of control; (dose: 50.0 mg/kg/injection, schedule: Q01DX005 (ip), vehicle: other) 106 % of control; (dose: 50.0 mg/kg/injection, schedule: Q01DX005 (ip), vehicle: saline + Tween-80 + alcohol) 94 % of control. For the same compound, the T/C (dose: 100.0 mg/kg/injection, schedule: Q01DX005 (ip), vehicle: saline + Tween-80 + alcohol) is 94 % of control.
For `O=C(Cc1nc2ccccc2s1)Nc1ccc2ccccc2c1`, the T/C is, setting by setting: (dose: 60.0 mg/kg/injection, schedule: Q01DX005 (ip), vehicle: saline with Tween-80) 107 % of control; (dose: 120.0 mg/kg/injection, schedule: Q01DX005 (ip), vehicle: saline with Tween-80) 106 % of control.
Consider `CCOC(=O)CCC(NC(=O)c1ccc(N(C)CCC(C)=O)cc1)C(=O)OCC` (stereo not given), for which the T/C by setting is: under setting [4], 111 % of control; under setting [6], 111 % of control; under setting [5], 102 % of control; under setting [7], 97 % of control.
For `NC(=S)n1nc(-c2ccccc2)c(N=Nc2ccc(Cl)cc2Cl)c1-c1ccccc1`, the T/C is 94 % of control under setting [8], 88 % of control under setting [9] and 96 % of control under setting [10].
Turning to `COC(=O)C(CC(C)C)NC(=O)C(Cc1cnc[nH]1)NC(=O)C(CS)N(C(=O)OCc1ccccc1)C(=O)OCc1ccccc1` (stereo not given), the T/C was 99 % of control under setting [8], 98 % of control under setting [9] and 100 % of control under setting [10].
With `NC(CC(=O)O)c1ccccc1` (stereo not given), the T/C is 107 % of control under setting [4], 102 % of control under setting [6], 102 % of control under setting [5] and 90 % of control under setting [7].
In the case of `CC1CC2(OC2C)C(=O)OC2CCN(C)C/C=C(/COC(=O)C1(C)O)C2=O` (stereo not given), the T/C by setting is: (dose: 3.12 mg/kg/injection, schedule: Q01DX009 (ip), vehicle: Klucel (hydroxypropylcellulose) (HPC)) 105 % of control; (dose: 6.25 mg/kg/injection, schedule: Q01DX009 (ip), vehicle: Klucel (hydroxypropylcellulose) (HPC)) 99 % of control; under setting [1], 103 % of control; under setting [2], 99 % of control; (dose: 40.0 mg/kg/injection, schedule: Q01DX009 (ip), vehicle: Klucel (hydroxypropylcellulose) (HPC)) 110 % of control; (dose: 50.0 mg/kg/injection, schedule: Q04DX002 (ip), vehicle: saline) 108 % of control. In addition, the T/C is 110 % of control (dose: 80.0 mg/kg/injection, schedule: Q01DX009 (ip), vehicle: Klucel (hydroxypropylcellulose) (HPC)); 101 % of control (dose: 100.0 mg/kg/injection, schedule: Q04DX002 (ip), vehicle: saline); 100 % of control (dose: 160.0 mg/kg/injection, schedule: Q01DX009 (ip), vehicle: Klucel (hydroxypropylcellulose) (HPC)); 106 % of control (dose: 200.0 mg/kg/injection, schedule: Q04DX002 (ip), vehicle: saline).
For the compound `N#CCCS(=O)(=O)c1ccc(Cl)cc1`, the T/C runs as follows: (dose: 50.0 mg/kg/injection, schedule: Q01DX009 (ip), vehicle: saline) 99 % of control; (dose: 100.0 mg/kg/injection, schedule: Q01DX009 (ip), vehicle: saline) 100 % of control; (dose: 200.0 mg/kg/injection, schedule: Q01DX009 (ip), vehicle: saline) 100 % of control.
